Source: US11370784B2 (MISSION THERAPEUTICS LIMITED, priority 2016, dated 2022)

target: USP30 (Homo sapiens (Human), UniProt Q70CQ3); assay: USP30 biochemical IC50 assay; details: fluorescence polarisation, TAMRA labelled peptide linked to ubiquitin as substrate; enzyme and compound incubated 30 min at room temp; read-out: IC50 range
Method: Reactions were performed in duplicate in black 384 well plates (small volume, Greiner 784076) in a final reaction volume of 21 μl. Either 1 μl of 50% DMSO or diluted compound was added to the plate. USP30 was diluted in reaction buffer (40 mM Tris, pH 7.5, 0.005% Tween 20, 0.5 mg/ml BSA, 5 mM beta-mercaptoethanol) to the equivalent of 0.05 μl/well and 10 μl of diluted USP30 was added to the compound. Enzyme and compound were incubated for 30 min at room temp. Reactions were initiated by the addition of 50 nM of TAMRA labelled peptide linked to ubiquitin via an iso-peptide bond as fluorescence polarisation substrate. Reactions were read immediately after addition of substrate and following a 2 h incubation at room temperature. Readings were performed on a Pherastar Plus (BMG Labtech). λ Excitation 540 nm; λ Emission 590 nm.

USP30, sequence (Q70CQ3 57-517): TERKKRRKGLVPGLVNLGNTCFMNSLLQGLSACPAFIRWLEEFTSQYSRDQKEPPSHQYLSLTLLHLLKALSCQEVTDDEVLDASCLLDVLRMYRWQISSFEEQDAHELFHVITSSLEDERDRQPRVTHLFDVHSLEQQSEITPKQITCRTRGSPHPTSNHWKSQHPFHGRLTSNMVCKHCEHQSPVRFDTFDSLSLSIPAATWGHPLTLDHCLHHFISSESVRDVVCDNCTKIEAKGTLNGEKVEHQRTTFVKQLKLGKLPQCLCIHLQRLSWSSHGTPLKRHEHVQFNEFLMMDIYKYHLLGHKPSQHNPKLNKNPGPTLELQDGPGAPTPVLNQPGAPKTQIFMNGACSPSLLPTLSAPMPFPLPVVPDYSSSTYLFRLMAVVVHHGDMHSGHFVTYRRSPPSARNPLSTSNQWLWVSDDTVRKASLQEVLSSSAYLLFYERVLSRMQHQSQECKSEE

`N#CN1CCC[C@](F)(C(=O)Nc2ccc(-c3ccn[nH]3)cn2)C1` [Example 72, (R)—N-(5-(1H-Pyrazol-5-yl)pyridin-2-yl)-1-cyano-3-fluoropiperidine-3-carboxamide] and `N#CN1CCCC(F)(C(=O)Nc2ccc(-c3ccn[nH]3)cn2)C1` (racemic) [Example 49, N-(5-(1H-Pyrazol-5-yl)pyridin-2-yl)-1-cyano-3-fluoropiperidine-3-carboxamide] fall in the same range of IC50: 0.1 to 1 µM for the first, 0.1 to 1 µM for the second.

`N#CN1CCC[C@](F)(C(=O)Nc2ccc(-c3cccc4[nH]ncc34)nn2)C1` [Example 91, (R)—N-(6-(1H-Indazol-4-yl)pyridazin-3-yl)-1-cyano-3-fluoropiperidine-3-carboxamide] and `N#CN1CCC[C@](F)(C(=O)Nc2cnc(-c3cccc4[nH]ncc34)cn2)C1` [Example 87, (R)—N-(5-(1H-Indazol-4-yl)pyrazin-2-yl)-1-cyano-3-fluoropiperidine-3-carboxamide] cannot be ordered by IC50: under 0.1 µM for the first, under 0.1 µM for the second.

First: N#Cc1cccc(-c2cc(NC(=O)[C@H]3CN(C#N)CCO3)ncn2)c1 [Example 4, (R)-4-Cyano-N-(6-(3-cyanophenyl)pyrimidin-4-yl)morpholine-2-carboxamide]
Second: N#Cc1ccc(-c2cc(NC(=O)[C@H]3CN(C#N)CCO3)ncn2)cc1 [Example 25, (R)-4-Cyano-N-(6-(4-cyanophenyl)pyrimidin-4-yl)morpholine-2-carboxamide]
The IC50 of the first is lower: under 0.1 µM for the first, 1 to 10 µM for the second. The first is the more potent here.

First: N#Cc1ccnc(-c2ccnc(NC(=O)C3CN(C#N)CCO3)c2)c1 (centres unmarked) [Example 14, 4-Cyano-N-(4-cyano-[2,4′-bipyridin]-2′-yl)morpholine-2-carboxamide]
Second: N#Cc1cc(-c2ccnc(NC(=O)C3CN(C#N)CCO3)c2)ccn1 (centres unmarked) [Example 18, 4-Cyano-N-(2′-cyano-[4,4′-bipyridin]-2-yl)morpholine-2-carboxamide]
The IC50 of the first is higher: 1 to 10 µM for the first, 0.1 to 1 µM for the second. The second is the more potent here.

`N#CN1CCC[C@H](C(=O)Nc2ncc(-c3ccccc3)s2)C1` [Example 56, (S)-1-Cyano-N-(5-phenylthiazol-2-yl)piperidine-3-carboxamide] and `N#CN1CCCC(C(=O)Nc2ccc(-c3ccccc3)cn2)C1` (centres unmarked) [Example 39, 1-Cyano-N-(5-phenylpyridin-2-yl)piperidine-3-carboxamide] fall in the same range of IC50: 1 to 10 µM for the first, 1 to 10 µM for the second.

`N#Cc1cc(F)cc(-c2cc(NC(=O)[C@H]3CN(C#N)CCO3)ncn2)c1` [Example 24, (R)-4-Cyano-N-(6-(3-cyano-5-fluoro-phenyl)pyrimidin-4-yl)morpholine-2-carboxamide] and `N#CN1CCOC(C(=O)Nc2ncc(-c3ccc(F)cc3)s2)C1` (centres unmarked) [Example 2, 4-Cyano-N-(5-(4-fluorophenyl)thiazol-2-yl)morpholine-2-carboxamide] fall in the same range of IC50: 0.1 to 1 µM for the first, 0.1 to 1 µM for the second.

`N#CN1CCOC(C(=O)Nc2ccc(-c3ccccc3)nc2)C1` (centres unmarked) [Example 17, 4-Cyano-N-(6-phenylpyridin-3-yl)morpholine-2-carboxamide] and `N#CN1CCOC(C(=O)Nc2cc(-c3ccccc3)on2)C1` (centres unmarked) [Example 13, 4-Cyano-N-(5-phenylisoxazol-3-yl)morpholine-2-carboxamide] fall in the same range of IC50: 1 to 10 µM for the first, 1 to 10 µM for the second.

First: N#CN1CCC[C@](F)(C(=O)Nc2ccc(-c3nccc4cn[nH]c34)cn2)C1 [Example 89, (R)—N-(5-(1H-Pyrazolo[3,4-c]pyridin-7-yl)pyridin-2-yl)-1-cyano-3-fluoropiperidine-3-carboxamide]
Second: N#CN1CCCC(F)(C(=O)Nc2cc(-c3ccccc3)on2)C1 (centres unmarked) [Example 45, 1-Cyano-3-fluoro-N-(5-phenylisoxazol-3-yl)piperidine-3-carboxamide]
The IC50 of the first is lower: under 0.1 µM for the first, 0.1 to 1 µM for the second.

Compared with `Cn1cc(-c2ccc(NC(=O)C3CN(C#N)CCO3)cc2)cn1` (centres unmarked) [Example 5, 4-Cyano-N-(4-(1-methyl-1H-pyrazol-4-yl)phenyl)morpholine-2-carboxamide], `N#CN1CCO[C@@H](C(=O)Nc2cc(-c3cccc(Cl)c3)cnn2)C1` [Example 62, (R)—N-(5-(3-Chlorophenyl)pyridazin-3-yl)-4-cyanomorpholine-2-carboxamide] is lower in IC50: 1 to 10 µM for the first, 0.1 to 1 µM for the second. The second is the more potent here.

Compared with `N#CN1CCC[C@](F)(C(=O)Nc2cc(-c3cccc(Cl)c3)no2)C1` [Example 76, (R)—N-(3-(3-Chlorophenyl)isoxazol-5-yl)-1-cyano-3-fluoropiperidine-3-carboxamide], `N#Cc1cccc(-n2cnc(NC(=O)[C@@]3(F)CCCN(C#N)C3)n2)c1` [Example 83, (R)-1-Cyano-N-(1-(3-cyanophenyl)-1H-1,2,4-triazol-3-yl)-3-fluoropiperidine-3-carboxamide] is higher in IC50: under 0.1 µM for the first, 0.1 to 1 µM for the second. The first is the more potent here.
